Test results taken from US20250092269A1, “ANTI-BIOFOULING COMPOSITION” (Montana Technological University, priority 2023, published 2025).

Key:
biofilm [1] = assay: Biofilm biovolume after 4-hour filtration test, furanone C-30 fibers vs control fibers (SEM); format: cell-based; settings: furanone C-30 control-released from 3:1 PCL/PEG fibers on MCE filter
Source text: (§1) Bench Scale Nanofiltration System: A bench scale nanofiltration system for monitoring water output efficiencies and biofilm formation on MCE membranes was used as illustrated in FIG. 2.
In this example, a membrane comprising a filter coating, which was deposited by electrospinning fibers comprising a polymer blend (3:1 polycaprolactone (PCL) to polyethylene glycol (PEG)) associated with one or more anti-QS molecules furanone C-30 was compared to a control membrane comprising a filter coating, which was deposited by electrospinning fibers comprising a polymer blend (3:1 polycaprolactone (PCL) to polyethylene glycol (PEG).
FIG. 8A is a scanning electron micrograph image showing the biofilm biovolume after a 4-hour filtration test of a MCE filter comprising electrospun PCL/PEG fibers. FIG. 8B is a scanning electron micrograph image showing the biofilm biovolume after a 4-hour filtration test of a MCE filter comprising electrospun PCL/PEG fibers associated with one or more anti-QS furanone C-30 molecules.

P. aeruginosa (PAO1) = assay: Biofilm growth on filtration membranes in bench scale nanofiltration system, 4-hour operation (CLSM); format: cell-based, Pseudomonas aeruginosa
Procedure: Polymeric Component: A polymer blend for electrospinning was prepared comprising 3 wt. % PEG (8,000 MW, Sigma Aldrich) and 8.9 wt. % PCL (80,000 MW, Sigma Aldrich) in chloroform. The PEG/PCL polymer blend was stirred with a Teflon coated stir bar at 80° C. until no visible polymer weas present.
Anti-Quorum Sensing Molecules: The polymeric component comprising the polymer blend was seeded with Urolithin A at a concentration of 200 μg/mL during mixing. Fiber mats comprising Urolithin A were stored at 4-8° C. for preservation prior to application.
Electrospinning: The polymeric component comprising the polymer blend was pumped continuously by a syringe pump at a fixed rate of 0.250 mL/hour to a vertical Spraybase electrospinner equipped with a 22-guage needle at a voltage of 6.6 kV and grounded equidistant copper-plated parallel electrodes for uniaxially aligned deposition (parallel gap electrospinning). A separation distance of 4 cm between the needle and grounded electrodes were maintained for 20 minutes while the fiber mat was fabricated. Fiber mats were rotated at 10 minutes to achieve a crosshatch filter pattern. Fibers were then placed onto MCE membranes and investigated for their controlled release of the anti-QS molecules. […]

biofilm [2] = assay: Biofilm growth on membranes with Urolithin A fibers at 50, 100, 200 μg/mL (CLSM); format: cell-based; settings: PCL/PEG fibers with Urolithin A 50, 100, 200 μg/mL; FIG. 6A-6D
Procedure: as §1
In this example, biofouling on filtration membranes was investigated by comparing membranes comprising a filter coating associated with one or more anti-QS Urolithin A molecules having concentrations of 50 μg/mL, 100 μg/mL, and 200 μg/mL.
FIG. 6A is a confocal microscopy (CLSM) image showing the biofilm growth on an unmodified control membrane. FIG. 6B is a confocal microscopy (CLSM) image showing the biofilm growth on a membrane comprising electrospun PCL/PEG fibers associated with one or more anti-QS Urolithin A molecules (50 μg/mL). FIG. 6C is a confocal microscopy (CLSM) image showing the biofilm growth on a membrane comprising electrospun PCL/PEG fibers associated with one or more anti-QS Urolithin A molecules (100 μg/mL). FIG. 6D is a confocal microscopy (CLSM) image showing the biofilm growth on a membrane comprising electrospun PCL/PEG fibers associated with one or more anti-QS Urolithin A molecules (200 μg/mL).

[3] = Membrane performance (water quantity output) in bench scale nanofiltration system; settings: electrospun 3:1 PCL:PEG fibers with Urolithin A 200 μg/mL; 4-hour operation
Source text: as §1
In this example, biofouling on filtration membranes was investigated by examining anti-quorum sensing molecules in P. aeruginosa (PAO1). More specifically, a membrane comprising an unmodified membrane (referred to “MCE Control”); a membrane (referred to as “Control Fibers”) comprising a filter coating, which was deposited by electrospinning fibers comprising a polymer blend (3:1 polycaprolactone (PCL) to polyethylene glycol (PEG)); and a membrane (referred to as “Anti-QS Fibers” comprising a filter coating, which was deposited by electrospinning fibers comprising a polymer blend (3:1 polycaprolactone (PCL) to polyethylene glycol (PEG)) associated with one or more anti-QS molecules (200 μg/mL). Biofilm growth over a 4-hour operation was investigated and compared for the MCE Control, Control Fibers, and Anti-QS Fibers.

SMILES: O=C1C=C(Br)/C(=C/Br)O1 [furanone C-30]
- reduction in biovolume relative to the control membrane (PCL/PEG fibers) (biofilm [1]): 57.5%

SMILES: O=c1oc2cc(O)ccc2c2ccc(O)cc12 [Urolithin A]
- reduction of biofilm formation during filtration compared to the MCE Control (P. aeruginosa (PAO1); electrospun 3:1 PCL:PEG coating with Urolithin A 200 μg/mL): 83.48%
- increase of biovolume reduction by controlled release of anti QS molecules (P. aeruginosa (PAO1); electrospun 3:1 PCL:PEG fibers with Urolithin A 200 μg/mL): 26.05%
- biofilm biovolume vs concentration of Urolithin A in fibers (biofilm [2]): biofilm biovolume reduction corresponding to the increased concentrations
- increase of flux [3]: 52.78%
